For 32 molecules, IC50 results are on record in US11021481B2, “Substituted isoindolin-1-ones and 2,3-dihydro-1h-pyrrolo[3,4-c]pyridin-1-ones as HPK1 antagonists” (Nimbus Saturn, Inc., priority 2019, dated 2021).

HPK1, sequence (Q92918 whole entry): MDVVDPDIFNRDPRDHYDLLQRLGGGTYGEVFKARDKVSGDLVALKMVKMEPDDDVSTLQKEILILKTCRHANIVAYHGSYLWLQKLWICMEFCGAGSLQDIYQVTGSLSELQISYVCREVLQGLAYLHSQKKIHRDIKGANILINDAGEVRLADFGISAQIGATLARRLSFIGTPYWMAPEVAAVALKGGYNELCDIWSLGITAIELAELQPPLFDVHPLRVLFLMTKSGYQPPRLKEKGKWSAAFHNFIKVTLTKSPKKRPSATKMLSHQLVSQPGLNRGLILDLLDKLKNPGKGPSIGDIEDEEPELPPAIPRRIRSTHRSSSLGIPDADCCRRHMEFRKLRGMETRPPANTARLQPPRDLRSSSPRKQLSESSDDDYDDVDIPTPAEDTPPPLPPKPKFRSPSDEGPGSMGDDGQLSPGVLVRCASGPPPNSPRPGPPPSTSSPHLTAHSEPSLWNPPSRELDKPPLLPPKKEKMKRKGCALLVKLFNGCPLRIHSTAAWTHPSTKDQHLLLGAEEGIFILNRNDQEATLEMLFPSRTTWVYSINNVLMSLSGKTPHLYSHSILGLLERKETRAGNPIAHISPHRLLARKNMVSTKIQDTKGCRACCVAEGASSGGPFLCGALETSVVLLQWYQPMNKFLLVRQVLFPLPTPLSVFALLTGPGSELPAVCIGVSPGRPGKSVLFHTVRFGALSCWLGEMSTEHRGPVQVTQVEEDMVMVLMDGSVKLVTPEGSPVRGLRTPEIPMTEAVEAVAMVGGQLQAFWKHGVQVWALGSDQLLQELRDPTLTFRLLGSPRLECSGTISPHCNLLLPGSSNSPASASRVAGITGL

The assay concerns the target HPK1 (Homo sapiens (Human), UniProt Q92918). The experiment in a line: HPK1 biochemical enzyme assay (microfluidic mobility shift assay). Conditions: 1.5 nM HPK1, ATP 1 mM final, 30 min preincubation, 60 min at RT, Caliper EZ Reader; read-out: HPK1 1000UMATP caliper IC50. Summed up:
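Ten-point compound titrations (top 3 μM final) preincubated 30 min with HPK1 and substrate, then reaction started with 1 mM ATP and 1 μM substrate, 5 mM MgCl2. After 60 min at RT, reaction terminated and product measured by microfluidic mobility shift.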
For `Cc1ccn2c(-c3ccc(Nc4ccc(N5CCO[C@H](C(C)(C)O)C5)cn4)c4c3CNC4=O)cnc2c1` [I-490, 7-[[5-[(2S)-2-(1-hydroxy-1-methylethyl)morpholin-4-yl]-2-pyridyl]amino]-4-(7-methylimidazo [1,2-a]pyridin-3-yl)isoindolin-1-one], the IC50 is less than 100 nM.
Regarding `CNCc1nc(Nc2cnc(-c3ccnc4c3ccn4C)c3c2C(=O)NC3)ccc1[C@H]1CCOC1` (single isomer, unassigned) [I-814], the IC50 was less than 100 nM.
Regarding `COCC1CN(c2ccc(Nc3ccc(-c4cnc5cc(F)ccn45)c4c3C(=O)NC4)nc2CN(C)C)CCO1` (stereo in doubt) [I-712, (S)-7-((6-((dimethylamino)-methyl)-5-(2-(methoxymeth-yl)morpho-lino)pyridin-2-yl)amino)-4-(7-fluoroimidazo [1,2-a]pyridin-3-yl)isoindolin-1-one], the IC50 was less than 100 nM.
The figure for `Cn1ccc2c(-c3ccc(Nc4cccc(N5CCC(O)CC5)n4)c4c3CNC4=O)ccnc21` [I-147, 7-[[6-(4-hydroxy-1-piperidyl)-2-pyridyl]amino]-4-(1-methylpyrrolo [2,3-b]pyridin-4-yl)isoindolin-1-one] is 100 to 1000 nM; for `CN(C)[C@H]1COCCN(c2ccc(Nc3ccc(-c4cnc5cc(F)ccn45)c4c3C(=O)NC4)nc2)C1` [I-519, (R)-7-((5-(6-(dimethylami-no)-1,4-oxazepan-4-yl)pyridin-2-yl)amino)-4-(7-fluoroimidazo [1,2-a]pyridin-3-yl)isoindolin-1-one] it is less than 100 nM; for `CC(C)(O)[C@H]1CN(c2ccc(Nc3cnc(-c4cnc5c(F)cccn45)c4c3C(=O)NC4)nc2)CCO1` [I-458, 4-(8-fluoroimidazo [1,2-a]pyridin-3-yl)-7-[[5-[(2R)-2-(1-hydroxy-1-methyl-ethyl)morpholin-4-yl]-2-pyridyl]amino]-2,3-dihydropyrrolo [3,4-c]pyridin-l-one] it is less than 100 nM.
Consider `CC(C)N(C)Cc1nc(Nc2ccc(-c3cnc4cc(F)ccn34)c3c2C(=O)NC3)ccc1C1CCOC1` (stereo in doubt) [I-730, (R)-4-(7-fluoroimidazo [1,2-a]pyridin-3-yl)-7-((6-((isopropyl(methyl)amino)methyl)-5-(tetrahydrofuran-3-yl)pyridin-2-yl)amino)isoin-dolin-1-one], for which the IC50 was less than 100 nM.
With `COc1ccc2c(-c3ccc(Nc4ccc(N5CCN(C)CC5)cn4)c4c3CNC4=O)c[nH]c2c1` [I-28, 4-(6-methoxy-1H-indol-3-yl)-7-[[5-(4-methylpiperazin-1-yl)-2-pyridyl]amino] isoindolin-1-one], the IC50 was less than 100 nM.
`C[C@H](O)[C@@H]1CCCN(c2ccc(Nc3ccc(-c4cnc5cc(F)ccn45)c4c3C(=O)NC4)nc2)C1` (stereo in doubt) [I-363, 4-(7-fluoroimidazo [1,2-a]pyridin-3-yl)-7-((5-((S)-3-((R)-1-hydroxyethyl)piperidin-1-yl)pyridin-2-yl)amino)isoin-dolin-1-one]: the IC50 is less than 100 nM.
Turning to `O=C1NCc2c(-c3cnc4cc(F)ccn34)ccc(Nc3ccc(N4CCO[C@H](Cn5ccnc5)C4)cn3)c21` [I-512, 4-(7-fluoroimidazo [1,2-a]pyridin-3-yl)-7-[[5-[(2S)-2-(imidazol-1-ylmethyl)mor-pholin-4-yl]-2-pyridyl]amino] isoindolin-1-one], the IC50 was less than 100 nM.
`O=C1NCc2c(-c3cnc4cc(F)ccn34)ccc(Nc3ccc(N4CCOCC4)cn3)c21` [I-159, 4-(7-fluoroimidazo [1,2-a]pyridin-3-yl)-7-[(5-morpholino-2-pyridyl)amino] isoindolin-1-one]: the IC50 is less than 100 nM.
With `O=C1NCc2c(-c3cnc4cc(F)ccn34)ccc(Nc3ccc(N4CCO[C@@H](C5(O)CC5)C4)cn3)c21` (single isomer, unassigned) [I-663] the figure was less than 100 nM; with `Cn1ccc2c(-c3ccc(Nc4ccc(C5CCNCC5)cn4)c4c3CNC4=O)ccnc21` [I-96, 4-(1-methylpyrrolo [2,3-b]pyridin-4-yl)-7-[[5-(4-piperidyl)-2-pyridyl]amino] isoindolin-1-one], less than 100 nM.
Take `C[C@@H]1CCn2c(-c3ccc(Nc4ccc(N5CCC(O)CC5)cn4)c4c3CNC4=O)cnc2C1` (single isomer, unassigned) [I-302]: the IC50 lay in the range of 100 to 1000 nM.
With `Cn1ccc2c(-c3ccc(Nc4ccc(N5CCNCC5)cn4)c4c3CNC4=O)ccnc21` [I-43], the IC50 is less than 100 nM.
The figure for “(S)-7-((6- ((dimethylamino)- methyl)-5- (tetrahydrofuran- 3-yl)pyridin- 2-yl)amino)-4- (1-methyl-1H- indol-4-yl)- 2,3-dihydro- 1H-pyrrolo[3,4- c]pyridin-1-one [I-540]” is less than 100 nM.
Regarding `C[C@@H](c1ccc(Nc2ccc(-c3cnc4cc(F)ccn34)c3c2C(=O)NC3)nc1)N1CCC(O)CC1` [I-526, (S)-4-(7-fluoroimidazo [1,2-a]pyridin-3-yl)-7-((5-(l-(4-hydroxypiperidin-1-yl)ethyl)pyridin-2-yl)amino)isoin-dolin-1-one], the IC50 is less than 100 nM.
Take `CN(C)CCN(C)c1cccc(Nc2cnc(-c3ccnc4c3ccn4C)c3c2C(=O)NC3)n1` [I-246, 7-[[6-[2-(dimethylami-no)ethyl-methyl-amino]-2-pyridyl]-amino]-4-(1-methylpyrrolo [2,3-b]pyridin-4-yl)-2,3-dihydropyrrolo [3,4-c]pyridin-1-one]: the IC50 is less than 100 nM.
Turning to `O=C1NCc2c(-c3c[nH]c4ccccc34)ncc(Nc3ccc(N4CCOCC4)cn3)c21` [I-3, 4-(1H-indo1-3-yl)-7-[(5-morpholino-2-pyridyl)amino]-2,3-dihydropyrrolo [3,4-c] pyridin-1-one], the IC50 lay within 100 to 1000 nM.
With `CN1CCN(c2ccc(Nc3ccc(-c4cnc5cnccn45)c4c3C(=O)NC4)nc2)CC1` [I-76, 4-imidazo[1,2-a]pyrazin-3-yl-7-[[5-(4-methylpiperazin-1-yl)-2-pyridyl]amino] isoindolin-1-one] the figure was less than 100 nM.
Turning to `Cn1ccc2c(-c3ncc(Nc4cccc(N5CC[C@@H](N6CCCC6)C5)n4)c4c3CNC4=O)ccnc21` [I-431, (R)-7-((6-([1,3-bipyrrolidin]-1-yl)pyridin-2-yl)amino)-1-(1-methyl-1H-pyrrolo[2,3-b]pyridin-4-yl)-2,3-dihydro-1H-pyrrolo[3,4-c]pyridin-1-one], the IC50 was less than 100 nM.
With `Cc1cc(-c2ccc(Nc3ccc(N4CCN(C)CC4)cn3)c3c2CNC3=O)c2cc[nH]c2n1` [I-77, 7-[[5-(4-methylpiperazin-1-yl)-2-pyridyl]amino]-4-(6-methyl-1H-pyrrolo[2,3-b]pyridin-4-yl)isoindolin-1-one] the figure was 100 to 1000 nM; with `C[C@@H]1CC[C@@](C)(O)CN1c1ccc(Nc2ccc(-c3cnn4c3CCCC4)c3c2C(=O)NC3)nc1` [I-598, 7-((5-((2R,5R)-5-hydroxy-2,5-dimethyl-piperidin-1-yl)pyridin-2-yl)amino)-4-(4,5,6,7-tetrahydropyra-zolo[1,5-a]pyridin-3-yl)isoindolin-1-one], less than 100 nM.
Turning to `CC(C)(O)[C@@H]1CN(c2ccc(Nc3cnc(-c4cnc5c(C(F)F)cccn45)c4c3C(=O)NC4)nc2)CCO1` [I-475, 4-[8-(difluoromethyl)-imidazo[1,2-a]pyridin-3-yl]-7-[[5-[(2S)-2-(1-hydroxy-1-methyl-ethyl)morpholin-4-yl]-2-pyridyl]amino]-2,3-dihydropyrrolo [3,4-c]pyridin-1-one], the 50% inhibitory concentration (IC50) was less than 100 nM.
Turning to `CNC1CCN(c2ccc(Nc3ccc(-c4cnc5cccnn45)c4c3C(=O)NC4)nc2)CC1` [I-91, 4-imidazo[1,2-b]pyridazin-3-yl-7-[[5-[4-(methylamino)-1-piperidyl]-2-pyridyl]amino] isoindolin-1-one], the IC50 is less than 100 nM.
With `Cn1ccc2c(-c3ncc(Nc4cncc(N5CC[C@H]6CNC[C@H]65)n4)c4c3CNC4=O)ccnc21` (single isomer, unassigned) [I-660], the IC50 is less than 100 nM.
In the case of `CN1CCN(c2ccc(Nc3cnc(-c4c[nH]c5cc(OCc6ccccc6)ccc45)c4c3C(=O)NC4)nc2)CC1` [I-260, 4-(6-(benzyloxy)-1H-indol-3-yl)-7-((5-(4-methylpiperazin-1-yl)pyridin-2-yl)amino)-2.3-dihydro-1H-pyrrolo[3,4-c]pyridin-1-one], the IC50 was more than 1000 nM.
`O=C1NCc2c(-c3cccn4ccnc34)ncc(Nc3ccc(N4CCC(O)CC4)cn3)c21` [I-384, 7-((5-(4-hydroxy-piperidin-1-yl)pyridin-2-yl)amino)-4-(imidazo[1,2-a]pyridin-8-yl)-2,3-dihydro-1H-pyrrolo[3,4-c]pyridin-1-one]: the IC50 was more than 1000 nM.
For `O=C1NCc2c(-c3cnc4cnccn34)ccc(Nc3cc(N4CCC(O)CC4)ccn3)c21` [I-324, 7-((4-(4-hydroxy-piperidin-1-yl)pyridin-2-yl)amino)-4-(imidazo[1,2-a]pyrazin-3-yl)isoindolin-1-one], the IC50 is more than 1000 nM.
For `O=C1NCc2c(-c3cnc4cc(F)ccn34)ccc(Nc3ccc(N4CCC(O)(CN5CCOCC5)CC4)cn3)c21` [I-348, 4-(7-fluoroimidazo [1,2-a]pyridin-3-yl)-7-((5-(4-hydroxy-4-(morpholino-methyl)piperidin-1-yl)pyridin-2-yl)amino)isoin-dolin-1-one], the IC50 is less than 100 nM.
In the case of `Cc1ccn2c(-c3ccc(Nc4ccc(N5CCOC(CN(C)C)C5)cn4)c4c3CNC4=O)cnc2c1F` (stereo in doubt) [I-614, (R)-7-((5-(2-((dimethylamino)-methyl)mor-pholino)pyridin-2-yl)amino)-4-(8-fluoro-7-methylimidazo [1,2-a]pyridin-3-yl)isoindolin-1-one], the IC50 is less than 100 nM.
With `CN(C)Cc1nc(Nc2ccc(-c3cnc4cc(F)ccn34)c3c2C(=O)NC3)ccc1[C@@H]1CCCO1` [I-560, (S)-7-((6-((dimethylamino)-methyl)-5-(tetrahydrofuran-2-yl)pyridin-2-yl)amino)-4-(7-fluoroimidazo [1,2-a]pyridin-3-yl)isoindolin-1-one] the figure was less than 100 nM.

By IC50 is commonly meant the concentration needed to halve the response being measured.
